Results taken from patent publication US20100004156A1, “Small Compounds That Correct Protein Misfolding and Uses Thereof” (priority 2005, published 2010).
Where a SMILES comes first, the peptide text is derived from it. The star is where a group is joined. Cbz = O=C(OCc1ccccc1)*

How the values were obtained:
[1] = test system: P23H opsin; conditions: previous studies, Noorwez et al. J Biol Chem 2003; cited from earlier work
[2] = test system: mutant P23H opsin; test: Recovery of correctly folded P23H rhodopsin from tetracycline-inducible HEK293 cells (immunoaffinity purification, absorbance at 500 nm); assay type: cell-based; conditions: for recovery of folded rhodopsins: in the presence of 11-cis-retinal, statement covers the rhodopsins of Table 1 (P23H and WT)
Procedure: (§1) Mutant P23H and wild-type opsins were expressed separately in tetracycline-inducible stable HEK293 cell lines in the presence of 11-cis retinal and various inhibitors. At forty-eight hours, the folded proteins were immununoaffinity purified and quantitated by UV-visible spectroscopy. The total amount of opsin protein was assayed at 280 nm. The amount of rhodopsin present in a biochemically functional conformation was assayed at 500 nm. Immunofluorescence microscopy was also performed to determine the cellular location of the proteins.
(§2) Stable wild-type and P23H opsin expressing HEK293 cell lines were generated in the Flp-In T-Rex system (Invitrogen). The BEK293 cells were grown in DMEM high glucose media supplemented with 10% fetal bovine serum, antibiotic-antimycotic solution, 5 μg/ml blasticidin and hygromycin at 37° C. in the presence of 8% CO2.
(§3) The opsin expressing HEK293 cell lines were allowed to reach confluence and were induced with 1 μg/ml tetracycline after a change of media. 10 μM 11-cis retinal was immediately added after induction under a red light, and inhibitors were added concurrently at the concentrations shown in Table 2 (below).
The plates were incubated for forty-eight hours. 10 uM of retinal was provided twenty-four hours after the first application, under red light.
Forty-eight hours after induction and inhibitor administration the HEK293 cells were harvested and rhodopsin was purified essentially as described in Noorwez et. al. (J Biol. Chem. 2004 Apr. 16; 279(16):16278-84). Spectrophotometric scans were taken in a Varian Cary 50 spectrophotometer.

[3] = test system: wild-type opsin; test: Recovery of wild-type rhodopsin from tetracycline-inducible HEK293 cells (immunoaffinity purification, absorbance at 500 nm); assay type: cell-based; conditions: 11-cis-retinal alone added to media of cells expressing wild-type opsin
Procedure: as §1, §2, §3
The plates were incubated for forty-eight hours. 10 uM of retinal was provided twenty-four hours after the first application, under red light. […]

Row | Compound | in vivo folding and stabilization of P23H opsin [1] | recovery of folded rhodopsins [2] | also measured
1 | 7-ring locked isomer of 11-cis-retinal | promotes the in vivo folding and stabilization | – | –
2 | Cn1cnc(N)c2ncnc1-2 [3-methyladenine] | – | increased the recovery | –
3 | CC1=C(/C=C/C(C)=C\C=C\C(C)=C\C=O)C(C)(C)CCC1 [9-cis-1-retinal] | promotes the in vivo folding and stabilization | – | –
4 | CC1=C(/C=C/C(C)=C/C=C/C(C)=C/C=O)C(C)(C)CCC1 [11-cis-retinal] | promotes the in vivo folding and stabilization | – | increase in rhodopsin yield ([2]; 11-cis-retinal alone added to culture medium of cells expressing the P23H mutant): 5-6 fold; effect on rhodopsin yield [3]: no effect
5 | Cl.N [Ammonium chloride] | – | increased the recovery | –
6 | C[C@H]1CCC/C=C/[C@@H]2C[C@H](O)C[C@H]2[C@H](O)/C=C/C(=O)O1 [Brefeldin A] | – | increased the recovery | increase in the yield of P23H rhodopsin ([2]; HEK293 cells, inhibitor added at induction with 11-cis-retinal, FIG. 4A): 2 fold
7 | O[C@H]1[C@H](O)[C@@H](O)CN2CC[C@H](O)[C@H]12 [Castanospermine] | – | increased the recovery | –
8 | CC(C)C[C@@H](C=O)NC(=O)[C@H](CC(C)C)NC(=O)[C@H](CC(C)C)NC(=O)OCc1ccccc1 [MG132, N-carbobenzoyl-Leu-Leu-Leu-CHO] (Cbz-Leu-Leu-Leu-aldehyde) | – | increased the recovery | –
